Assays:
Details in all cases: 25 µM pACP, 24 h, maintenance medium 1% FBS, ratio of viability to vehicle (PBS), at least three technical repetitions
HT29 = assay: MTT primary screening of anticancer activity, HT29; format: cell-based, Human
Source text: (§1) We successfully chemically synthesized 40 pACPs for the purpose of in vitro or in vivo characterization of their potential anticancer efficacy. In the initial step, we conducted an in vitro primary screen of these 40 pACPs using a panel of 16 different cancer cell lines, including four human CRC lines (HT29, Caco2, HCT116, and […]), as well as 12 other cancer models (Table S4, Supporting Information). We deliberately selected a diverse panel of cell lines to assess the effect of pACPs across various genetic backgrounds. Briefly, the cancer cells were cultured in specific media (details provided in the Experimental Section) and then treated with pACPs at a final concentration of 25 µM. Peptides with minimum effective inhibition concentrations >25 µM were considered non‐ACPs. After exposure to pACPs, the survival rate of the cancer cells was measured using the MTT assay. Remarkably, 39 out of the 40 pACPs (97.5%) induced at least 20% inhibition in at least one cell line (Figure 3a and Table S5, Supporting Information). […] Thus, our method successfully identified pACPs with a very high rate of anticancer effects across various cancer cell lines.
(§2) To evaluate the activity of the 40 potentially effective pACPs, a panel of 16 cancer cell lines was treated, including human CRC cell lines (HT29, Caco‐2, HCT116). Details of the cell lines used, respective media, and culture conditions were presented in Table S1 (Supporting Information). Once the cells reached 60% confluence, it was incubated with each candidate peptide at a concentration of 25 µM pACPs for 24 h. Concurrently, the complete medium was replaced with a maintenance medium containing only 1% FBS. Subsequently, the viability of each cell line using the MTT Cell Proliferation and Cytotoxicity Assay Kit according to the manufacturer's instructions was assessed. […] For the CRC cell line CT26, it was calculated the CC50 value using two peptides (pACP1780 and pACP2283) with relevant data presented in Table S6 (Supporting Information). The calculation was performed using an online tool: https://www.aatbio.com/tools/ic50‐calculator.

Caco2 = assay: MTT primary screening of anticancer activity, Caco2; format: cell-based, Human
Source text: as §1, §2

HCT116 = assay: MTT primary screening of anticancer activity, HCT116; format: cell-based, Human
Source text: as §1, §2

CT26 = assay: MTT primary screening of anticancer activity, CT26; format: cell-based, Murine
Source text: as §1, §2

MDA-MB-231 = assay: MTT primary screening of anticancer activity, MDA-MB-231; format: cell-based
Source text: as §1, §2

MDA-MB-436 = assay: MTT primary screening of anticancer activity, MDA-MB-436; format: cell-based
Source text: as §1, §2

MDA-MB-453 = assay: MTT primary screening of anticancer activity, MDA-MB-453; format: cell-based
Source text: as §1, §2

MDA-MB-468 = assay: MTT primary screening of anticancer activity, MDA-MB-468; format: cell-based
Source text: as §1, §2

SK-BR-3 = assay: MTT primary screening of anticancer activity, SK-BR-3; format: cell-based
Source text: as §1, §2

BT474 = assay: MTT primary screening of anticancer activity, BT474; format: cell-based
Source text: as §1, §2

T47D = assay: MTT primary screening of anticancer activity, T47D; format: cell-based
Source text: as §1, §2

EFM192A = assay: MTT primary screening of anticancer activity, EFM192A; format: cell-based
Source text: as §1, §2

B16 = assay: MTT primary screening of anticancer activity, B16; format: cell-based, Mouse
Source text: as §1, §2

MCF7 = assay: MTT primary screening of anticancer activity, MCF7; format: cell-based
Source text: as §1, §2

Hela = assay: MTT primary screening of anticancer activity, Hela; format: cell-based, Human
Source text: as §1, §2

LCC = assay: MTT primary screening of anticancer activity, LCC; format: cell-based
Source text: as §1, §2

Row | Sequence | Survival rate of cancer cells in primary screening (HT29) | Survival rate of cancer cells in primary screening (Caco2) | Survival rate of cancer cells in primary screening (HCT116) | Survival rate of cancer cells in primary screening (CT26) | Survival rate of cancer cells in primary screening (MDA-MB-231) | Survival rate of cancer cells in primary screening (MDA-MB-436) | Survival rate of cancer cells in primary screening (MDA-MB-453) | Survival rate of cancer cells in primary screening (MDA-MB-468) | Survival rate of cancer cells in primary screening (SK-BR-3) | Survival rate of cancer cells in primary screening (BT474) | Survival rate of cancer cells in primary screening (T47D) | Survival rate of cancer cells in primary screening (EFM192A) | Survival rate of cancer cells in primary screening (B16) | Survival rate of cancer cells in primary screening (MCF7) | Survival rate of cancer cells in primary screening (Hela) | Survival rate of cancer cells in primary screening (LCC)
1 | DSYGNRTEIERKIWRRYPCGYSCGTGEVKCDKEEWKKEYW [pACP264] | 1.00 | 1.00 | 1.00 | 1.00 | 1.00 | 1.00 | 1.00 | 1.00 | 1.00 | 1.00 | 0.70 | 1.00 | 0.73 | 0.72 | 1.00 | 1.00
2 | ERRVGYSWYGTWGNKVLKKYPEWLRRLTEKK [pACP341] | 1.00 | 1.00 | 1.00 | 0.60 | 1.00 | 1.00 | 1.00 | 0.74 | 1.00 | 0.62 | 1.00 | 1.00 | 0.74 | 0.66 | 1.00 | 1.00
3 | GLTSESVKSRCVKCLLYIKKSGATHDDNALHRTYCRNNCYRL [pACP550] | 1.00 | 1.00 | 1.00 | 1.00 | 1.00 | 1.00 | 1.00 | 1.00 | 1.00 | 1.00 | 1.00 | 1.00 | 0.78 | 1.00 | 1.00 | 1.00
4 | GNPAKQEIKVPGALGKGSCVQSGAGVGPRCRVPCGPLSGGMALFCYE [pACP555] | 1.00 | 1.00 | 1.00 | 1.00 | 1.00 | 1.00 | 1.00 | 1.00 | 1.00 | 1.00 | 0.74 | 1.00 | 0.75 | 1.00 | 1.00 | 1.00
5 | GVPMGSVIKKRRKRMAKKKHRKLLRKTRHQRRNKK [pACP593] | 1.00 | 1.00 | 1.00 | 1.00 | 1.00 | 1.00 | 0.63 | 1.00 | 1.00 | 0.78 | 0.71 | 1.00 | 1.00 | 1.00 | 0.74 | 1.00
6 | GWKKSQCCRNGFYRERGQQQAKNFMSQESFPVRENGE [pACP602] | 1.00 | 1.00 | 1.00 | 1.00 | 1.00 | 1.00 | 1.00 | 1.00 | 1.00 | 1.00 | 0.70 | 1.00 | 0.80 | 0.77 | 1.00 | 1.00
7 | HPGCRKAPGCLCTGVIPSAAIPGTGFEIGGAGCFPLALNCNCATLGKV [pACP631] | 1.00 | 1.00 | 1.00 | 1.00 | 1.00 | 1.00 | 1.00 | 1.00 | 1.00 | 1.00 | 0.79 | 1.00 | 0.76 | 1.00 | 1.00 | 1.00

Source: publication PMC10477861, “Efficient Mining of Anticancer Peptides from Gut Metagenome” (Advanced Science, 2023)
